# Assay results: US20020035061A1, “COMPOSITIONS AND METHODS FOR TREATING INFECTIONS USING CATIONIC PEPTIDES ALONE OR IN COMBINATION WITH ANTIBIOTICS” (priority 1996, published 2002)
# System: bacterial isolates
# Test: microbe, parasite or virus in culture
# Format: cell-based
# Conditions: for MBI 26 + Teicoplanin: in combination with Teicoplanin
sequence,measurement,setting,value
KWKSFIKKLTSAAKKVVTTAKPLISS [MBI 26],Peptide MIC Alone,"1. Amikacin, A. baumannii ABI001",8 µg/mL
same,Peptide MIC Alone,"1. Amikacin, A. baumannii ABI003",8 µg/mL
same,Peptide MIC Alone,"1. Amikacin, S. maltophilia SMA021",32 µg/mL
same,Peptide MIC Alone,"1. Amikacin, S. maltophilia SMA037",>128 µg/mL
same,Peptide MIC Alone,"2. Ceftriaxone, A. baumannii ABI002",8 µg/mL
same,Peptide MIC Alone,"2. Ceftriaxone, A. baumannii ABI005",2 µg/mL
same,Peptide MIC Alone,"2. Ceftriaxone, B. cepacia BC003",>128 µg/mL
same,Peptide MIC Alone,"2. Ceftriaxone, E. cloacae ECL014",8 µg/mL
same,Peptide MIC Alone,"2. Ceftriaxone, E. cloacae ECL015",32 µg/mL
same,Peptide MIC Alone,"2. Ceftriaxone, K. pneumoniae KP003",16 µg/mL
same,Peptide MIC Alone,"2. Ceftriaxone, P. aeruginosa PA008",128 µg/mL
same,Peptide MIC Alone,"2. Ceftriaxone, P. aeruginosa PA024",128 µg/mL
same,Peptide MIC Alone,"2. Ceftriaxone, S. aureus SA025 MRSA",1 µg/mL
same,Peptide MIC Alone,"2. Ceftriaxone, S. epidermidis SE007",32 µg/mL
same,Peptide MIC Alone,"2. Ceftriaxone, S. epidermidis SE012",64 µg/mL
same,Peptide MIC Alone,"2. Ceftriaxone, S. maltophilia SMA019",4 µg/mL
same,Peptide MIC Alone,"2. Ceftriaxone, S. maltophilia SMA020",4 µg/mL
same,Peptide MIC Alone,"3. Ciprofloxacin, A. calcoaceticus 1",>64 µg/mL
same,Peptide MIC Alone,"3. Ciprofloxacin, A. calcoaceticus 6",>32 µg/mL
same,Peptide MIC Alone,"3. Ciprofloxacin, E. cloacae 13",>128 µg/mL
same,Peptide MIC Alone,"3. Ciprofloxacin, E. cloacae 15",>32 µg/mL
same,Peptide MIC Alone,"3. Ciprofloxacin, E. cloacae 16",>32 µg/mL
same,Peptide MIC Alone,"3. Ciprofloxacin, P. aeruginosa 23",>32 µg/mL
same,Peptide MIC Alone,"3. Ciprofloxacin, P. aeruginosa 24",>32 µg/mL
same,Peptide MIC Alone,"3. Ciprofloxacin, P. aeruginosa PA41",128 µg/mL
same,Peptide MIC Alone,"3. Ciprofloxacin, P. aeruginosa PA77",128 µg/mL
same,Peptide MIC Alone,"3. Ciprofloxacin, S. aureus SA11",128 µg/mL
same,Peptide MIC Alone,"3. Ciprofloxacin, S. maltophilia 34",>32 µg/mL
same,Peptide MIC Alone,"3. Ciprofloxacin, S. maltophilia 35",>32 µg/mL
same,Peptide MIC Alone,"4. Gentamicin, A. baumannii ABI001",8 µg/mL
same,Peptide MIC Alone,"4. Gentamicin, A. baumannii ABI002",8 µg/mL
same,Peptide MIC Alone,"4. Gentamicin, P. aeruginosa PA041",64 µg/mL
same,Peptide MIC Alone,"4. Gentamicin, S. maltophilia SMA016",>128 µg/mL
same,Peptide MIC Alone,"4. Gentamicin, S. maltophilia SMA017",16 µg/mL
same,Amikacin MIC + Peptide,A. baumannii ABI001,8 µg/mL
same,Gentamicin MIC + Peptide,A. baumannii ABI001,16 µg/mL
same,Peptide MIC + Amikacin,A. baumannii ABI001,2 µg/mL
same,Peptide MIC + Gentamicin,A. baumannii ABI001,2 µg/mL
same,Ceftriaxone MIC + Peptide,A. baumannii ABI002,16 µg/mL
same,Gentamicin MIC + Peptide,A. baumannii ABI002,0.5 µg/mL
same,Peptide MIC + Ceftriaxone,A. baumannii ABI002,2 µg/mL
same,Peptide MIC + Gentamicin,A. baumannii ABI002,4 µg/mL
same,Amikacin MIC + Peptide,A. baumannii ABI003,2 µg/mL
same,Peptide MIC + Amikacin,A. baumannii ABI003,2 µg/mL
same,Ceftriaxone MIC + Peptide,A. baumannii ABI005,8 µg/mL
same,Peptide MIC + Ceftriaxone,A. baumannii ABI005,0.125 µg/mL
same,Ciprofloxacin MIC + Peptide,A. calcoaceticus 1,0.25 µg/mL
same,Peptide MIC + Ciprofloxacin,A. calcoaceticus 1,1 µg/mL
same,Ciprofloxacin MIC + Peptide,A. calcoaceticus 6,0.25 µg/mL
same,Peptide MIC + Ciprofloxacin,A. calcoaceticus 6,16 µg/mL
same,Peptide MIC + Piperacillin,A. calcoaceticus 7,8 µg/mL
same,Piperacillin MIC + Peptide,A. calcoaceticus 7,4 µg/mL
same,Peptide MIC Alone,"A. calcoaceticus 7, Piperacillin section",>32 µg/mL
same,Peptide MIC + Piperacillin,A. calcoaceticus 8,8 µg/mL
same,Piperacillin MIC + Peptide,A. calcoaceticus 8,4 µg/mL
same,Peptide MIC Alone,"A. calcoaceticus 8, Piperacillin section",>32 µg/mL
same,Ceftriaxone MIC + Peptide,B. cepacia BC003,8 µg/mL
same,Peptide MIC + Ceftriaxone,B. cepacia BC003,0.125 µg/mL
same,Ciprofloxacin MIC + Peptide,E. cloacae 13,0.25 µg/mL
same,Peptide MIC + Ciprofloxacin,E. cloacae 13,4 µg/mL
same,Peptide MIC + Piperacillin,E. cloacae 13,8 µg/mL
same,Piperacillin MIC + Peptide,E. cloacae 13,4 µg/mL
same,Peptide MIC Alone,"E. cloacae 13, Piperacillin section",>32 µg/mL
same,Ciprofloxacin MIC + Peptide,E. cloacae 15,0.25 µg/mL
same,Peptide MIC + Ciprofloxacin,E. cloacae 15,8 µg/mL
same,Ciprofloxacin MIC + Peptide,E. cloacae 16,0.25 µg/mL
same,Peptide MIC + Ciprofloxacin,E. cloacae 16,16 µg/mL
same,Ceftriaxone MIC + Peptide,E. cloacae ECL014,32 µg/mL
same,Peptide MIC + Ceftriaxone,E. cloacae ECL014,2 µg/mL
same,Ceftriaxone MIC + Peptide,E. cloacae ECL015,4 µg/mL
same,Peptide MIC + Ceftriaxone,E. cloacae ECL015,4 µg/mL
same,Mupirocin MIC + Peptide,E. coli ECO5,30 µg/mL
same,Peptide MIC + Mupirocin,E. coli ECO5,1 µg/mL
same,Peptide MIC Alone,"E. coli ECO5, Mupirocin section",8 µg/mL
same,Mupirocin MIC + Peptide,E. coli SBECO2,30 µg/mL
same,Peptide MIC + Mupirocin,E. coli SBECO2,1 µg/mL
same,Peptide MIC Alone,"E. coli SBECO2, Mupirocin section",8 µg/mL
same,MBI 26 Alone,E. faecalis 97040 VanB,64 µg/mL
same,MBI 26 + Teicoplanin,E. faecalis 97040 VanB,8 µg/mL
same,MBI 26 Alone,E. faecalis 97041 VanB,64 µg/mL
same,MBI 26 + Teicoplanin,E. faecalis 97041 VanB,8 µg/mL
same,MBI 26 Alone,E. faecalis 97042 VanB,64 µg/mL
same,MBI 26 + Teicoplanin,E. faecalis 97042 VanB,8 µg/mL
same,MBI 26 Alone,E. faecalis 97043 VanB,64 µg/mL
